Measurements taken from patent US6054435A, “6-O-substituted macrolides having antibacterial activity” (priority 1999, dated 2000).
≈ marks a conversion by molar mass, not a printed value.

Tests used:
Assay in all cases: in vitro antibacterial activity (MIC), agar dilution
Type in all cases: cell-based
[1] = test system: Enterococcus faecium ATCC 8043; details: organism code II; BHI agar, 35-37° C., 20 to 24 hours; unit assumed
Outline: (§1)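 MIC was taken by eye as the lowest drug level showing no growth, only haze or isolated colonies relative to the growth control. Organisms were replicator-spotted at 1:100 (Streptococcus 1:10) onto BHI agar plates containing serial compound dilutions, with a same-class reference antibiotic plate included.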

Escherichia coli JUHL = details: organism code QQ; BHI agar, 35-37° C., 20 to 24 hours; unit assumed
Outline: as §1

[2] = test system: Staphylococcus aureus CMX 642A; details: organism code DD; BHI agar, 35-37° C., 20 to 24 hours; unit assumed
Outline: as §1

[3] = test system: Streptococcus bovis A-5169; details: organism code JJ; BHI agar, 35-37° C., 20 to 24 hours; unit assumed
Outline: as §1

[4] = test system: Streptococcus pyogenes PIU 2548; details: organism code NN; BHI agar, 35-37° C., 20 to 24 hours; unit assumed
Outline: as §1

[5] = test system: Streptococcus Pneumonia 5649; details: organism code ZZA; BHI agar, 35-37° C., 20 to 24 hours; unit assumed
Outline: as §1

[6] = test system: Staphylococcus aureus A-5278; details: organism code CC; BHI agar, 35-37° C., 20 to 24 hours; unit assumed
Outline: as §1

Escherichia coli DC-2 = details: organism code SS; BHI agar, 35-37° C., 20 to 24 hours; unit assumed
Outline: as §1

[7] = test system: Streptococcus pyogenes 930; details: organism code MM; BHI agar, 35-37° C., 20 to 24 hours; unit assumed
Outline: as §1

[8] = test system: Streptococcus Pneumonia 5979; details: organism code ZZ; BHI agar, 35-37° C., 20 to 24 hours; unit assumed
Outline: as §1

[9] = test system: Streptococcus Pneumonia GYR 1171; details: organism code YY; BHI agar, 35-37° C., 20 to 24 hours; unit assumed
Outline: as §1

[10] = test system: Staphylococcus aureus CMX 553; details: organism code FF; BHI agar, 35-37° C., 20 to 24 hours; unit assumed
Outline: as §1

[11] = test system: Streptococcus agalactiae CMX 508; details: organism code KK; BHI agar, 35-37° C., 20 to 24 hours; unit assumed
Outline: as §1

[12] = test system: Staphylococcus epidermidis 3519; details: organism code HH; BHI agar, 35-37° C., 20 to 24 hours; unit assumed
Outline: as §1

[13] = test system: Staphylococcus aureus 1775; details: organism code GG; BHI agar, 35-37° C., 20 to 24 hours; unit assumed
Outline: as §1

[14] = test system: Nocardia Asteroides ATCC9970; details: organism code VV; BHI agar, 35-37° C., 20 to 24 hours; unit assumed
Outline: as §1

[15] = test system: Haemophilis Influenzae DILL AMP R; details: organism code WW; BHI agar, 35-37° C., 20 to 24 hours; unit assumed
Outline: as §1

[16] = test system: Streptococcus pyogenes EES61; details: organism code LL; BHI agar, 35-37° C., 20 to 24 hours; unit assumed
Outline: as §1

[17] = test system: Micrococcus luteus ATCC 4698; details: organism code PP; BHI agar, 35-37° C., 20 to 24 hours; unit assumed
Outline: (§2)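 Plates of BHI agar were prepared with twelve aqueous dilutions of compound, then inoculated at 1:100 dilution, or 1:10 for slow growers like Streptococcus. After incubation they were inspected, and the lowest concentration yielding no growth, slight haze or sparse colonies was recorded as MIC.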

[18] = test system: Micrococcus luteus ATCC 9341; details: organism code OO; BHI agar, 35-37° C., 20 to 24 hours; unit assumed
Outline: as §2

Escherichia coli SS = details: organism code RR; BHI agar, 35-37° C., 20 to 24 hours; unit assumed
Outline: as §1

[19] = test system: Staphylococcus aureus NCTC10649M; details: organism code EE; BHI agar, 35-37° C., 20 to 24 hours; unit assumed
Outline: as §1

Candida albicans CCH 442 = details: organism code TT; BHI agar, 35-37° C., 20 to 24 hours; unit assumed
Outline: as §1

[20] = test system: Mycobacterium smegmatis ATCC 114; details: organism code UU; BHI agar, 35-37° C., 20 to 24 hours; unit assumed
Outline: as §1

[21] = test system: Streptococcus Pneumonia ATCC6303; details: organism code XX; BHI agar, 35-37° C., 20 to 24 hours; unit assumed
Outline: as §1

[22] = test system: Staphylococcus aureus A5177; details: organism code BB; BHI agar, 35-37° C., 20 to 24 hours; unit assumed
Outline: as §1

[23] = test system: Staphylococcus aureus ATCC 6538P; details: organism code AA; BHI agar, 35-37° C., 20 to 24 hours; unit assumed
Outline: as §1

Row | Structure (SMILES) | MIC [1] | MIC (Escherichia coli JUHL) | MIC [2] | MIC [3] | MIC [4] | MIC [5] | MIC [6] | MIC (Escherichia coli DC-2) | MIC [7] | MIC [8] | MIC [9] | MIC [10] | MIC [11] | MIC [12] | MIC [13] | MIC [14] | MIC [15] | MIC [16] | MIC [17] | MIC [18] | also measured
1 | CC[C@H]1OC(=O)[C@H](C)C(=O)[C@H](C)[C@@H](O[C@@H]2O[C@H](C)C[C@H](N(C)C)[C@H]2O)[C@](C)(OC/C=C/c2ccc(-c3ccc(Cl)c(Cl)c3)s2)C[C@@H](C)C(=O)[C@H](C)[C@H]2NC(=O)O[C@@]21C [Example 71] | 0.39 µg/mL (≈ 0.45 µM) | > 100 µg/mL | 0.39 µg/mL (≈ 0.45 µM) | 0.05 µg/mL (≈ 0.0577 µM) | 0.39 µg/mL (≈ 0.45 µM) | 1 µg/mL (≈ 1.15 µM) | 12.5 µg/mL (≈ 14.4 µM) | > 100 µg/mL | 3.1 µg/mL (≈ 3.58 µM) | 4 µg/mL (≈ 4.62 µM) | 0.125 µg/mL (≈ 0.144 µM) | 0.39 µg/mL (≈ 0.45 µM) | 0.1 µg/mL (≈ 0.115 µM) | 0.39 µg/mL (≈ 0.45 µM) | 12.5 µg/mL (≈ 14.4 µM) | 0.39 µg/mL (≈ 0.45 µM) | 16 µg/mL (≈ 18.5 µM) | 0.1 µg/mL (≈ 0.115 µM) | 0.39 µg/mL (≈ 0.45 µM) | 0.39 µg/mL (≈ 0.45 µM) | MIC (Escherichia coli SS): 3.1 µg/mL (≈ 3.58 µM); MIC [19]: 0.39 µg/mL (≈ 0.45 µM); MIC (Candida albicans CCH 442): > 100 µg/mL; MIC [20]: 0.39 µg/mL (≈ 0.45 µM); MIC [21]: 0.125 µg/mL (≈ 0.144 µM); MIC [22]: 0.39 µg/mL (≈ 0.45 µM); MIC [23]: 0.39 µg/mL (≈ 0.45 µM)
2 | CC[C@H]1OC(=O)[C@H](C)C(=O)[C@H](C)[C@@H](O[C@@H]2O[C@H](C)C[C@H](N(C)C)[C@H]2O)[C@](C)(OC/C=C/c2ccc(-c3ncccn3)s2)C[C@@H](C)C(=O)[C@H](C)[C@H]2NC(=O)O[C@@]21C [Example 61] | 0.05 µg/mL (≈ 0.0626 µM) | 25 µg/mL (≈ 31.3 µM) | 0.1 µg/mL (≈ 0.125 µM) | 0.01 µg/mL (≈ 0.0125 µM) | 0.1 µg/mL (≈ 0.125 µM) | 0.25 µg/mL (≈ 0.313 µM) | > 100 µg/mL | 50 µg/mL (≈ 62.6 µM) | 50 µg/mL (≈ 62.6 µM) | 8 µg/mL (≈ 10 µM) | 0.015 µg/mL (≈ 0.0188 µM) | 0.1 µg/mL (≈ 0.125 µM) | 0.01 µg/mL (≈ 0.0125 µM) | 0.1 µg/mL (≈ 0.125 µM) | > 100 µg/mL | 0.05 µg/mL (≈ 0.0626 µM) | 8 µg/mL (≈ 10 µM) | 0.01 µg/mL (≈ 0.0125 µM) | 0.05 µg/mL (≈ 0.0626 µM) | 0.01 µg/mL (≈ 0.0125 µM) | MIC (Escherichia coli SS): 0.39 µg/mL (≈ 0.488 µM); MIC [19]: 0.1 µg/mL (≈ 0.125 µM); MIC (Candida albicans CCH 442): > 100 µg/mL; MIC [20]: 0.39 µg/mL (≈ 0.488 µM); MIC [21]: 0.015 µg/mL (≈ 0.0188 µM); MIC [22]: 0.1 µg/mL (≈ 0.125 µM); MIC [23]: 0.05 µg/mL (≈ 0.0626 µM)
3 | CC[C@H]1OC(=O)[C@H](C)C(=O)[C@H](C)[C@@H](O[C@@H]2O[C@H](C)C[C@H](N(C)C)[C@H]2O)[C@](C)(OCC#Cc2ccc(-c3ccc(F)cc3)s2)C[C@@H](C)C(=O)[C@H](C)[C@H]2NC(=O)O[C@@]21C [Example 22] | 0.78 µg/mL (≈ 0.959 µM) | > 100 µg/mL | 3.1 µg/mL (≈ 3.81 µM) | 0.39 µg/mL (≈ 0.48 µM) | 3.1 µg/mL (≈ 3.81 µM) | 4 µg/mL (≈ 4.92 µM) | > 100 µg/mL | > 100 µg/mL | > 100 µg/mL | 4 µg/mL (≈ 4.92 µM) | 1 µg/mL (≈ 1.23 µM) | 3.1 µg/mL (≈ 3.81 µM) | 0.39 µg/mL (≈ 0.48 µM) | 3.1 µg/mL (≈ 3.81 µM) | > 100 µg/mL | 0.78 µg/mL (≈ 0.959 µM) | 64 µg/mL (≈ 78.7 µM) | 0.39 µg/mL (≈ 0.48 µM) | 3.1 µg/mL (≈ 3.81 µM) | 0.39 µg/mL (≈ 0.48 µM) | MIC (Escherichia coli SS): 25 µg/mL (≈ 30.8 µM); MIC [19]: 3.1 µg/mL (≈ 3.81 µM); MIC (Candida albicans CCH 442): > 100 µg/mL; MIC [20]: 1.56 µg/mL (≈ 1.92 µM); MIC [21]: 1 µg/mL (≈ 1.23 µM); MIC [22]: 3.1 µg/mL (≈ 3.81 µM); MIC [23]: 3.1 µg/mL (≈ 3.81 µM)
